Experimental data reported in patent US20240083861A1, “HSD17B13 INHIBITORS AND USES THEREOF” (FL2022-001, Inc., priority 2020, published 2024).
pIC50: −log10 of the molar value.

These molecules were tested against T1, Recombinant human HSD17B13 enzyme (Homo sapiens, UniProt Q7Z5P4) (assay: HSD17b13 NAD(P)H-Glo biochemical assay). Conditions: 50 uM estradiol, 1 mM NAD+, NAD(P)H-Glo luminescence; read-out: HSD17β13 IC50.
T1 sequence (Q7Z5P4 20-300): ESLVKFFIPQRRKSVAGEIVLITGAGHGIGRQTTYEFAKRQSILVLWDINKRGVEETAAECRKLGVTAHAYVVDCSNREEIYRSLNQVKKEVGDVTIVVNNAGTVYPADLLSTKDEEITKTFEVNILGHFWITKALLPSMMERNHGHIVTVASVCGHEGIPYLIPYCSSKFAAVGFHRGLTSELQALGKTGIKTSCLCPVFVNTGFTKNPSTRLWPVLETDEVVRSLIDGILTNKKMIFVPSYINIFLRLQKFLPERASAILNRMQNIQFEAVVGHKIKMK
Summary of the method: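 Luminescent NAD(P)H-Glo read-out, taken after 1 hour at RT, measured cofactor reduction. Substrate and cofactor were estradiol at 50 uM and NAD+ at 1 mM final, reacted with the recombinant human enzyme for 3 hours at 37° C in 20 mM Tris pH7.4, 0.002% Tween-20, 0.02% BSA. Compound was pre-incubated with enzyme for 20 minutes at RT.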

Structure (SMILES)	pIC50
Cn1nc(-c2cc(C(F)(F)F)c(F)c(O)c2F)c2cnc(N3CCN(C(=O)C4CCOCC4)CC3)nc21 [Compound 18.127, (4-(3-(2,4-Difluoro-3-hydroxy-5-(trifluoromethyl)phenyl)-1-methyl-1H-pyrazolo[3,4-d]pyrimidin-6-yl)piperazin-1-yl)(tetrahydro-2H-pyran-4-yl)methanone]	6.00 to 7.00
Cn1nc(-c2cc(C(F)(F)F)c(F)c(O)c2F)c2cnc(N3CCN(C(=O)c4cccnc4)CC3)nc21 [Compound 18.128, (4-(3-(2,4-Difluoro-3-hydroxy-5-(trifluoromethyl)phenyl)-1-methyl-1H-pyrazolo[3,4-d]pyrimidin-6-yl)piperazin-1-yl)(pyridin-3-yl)methanone]	6.00 to 7.00
Cn1nc(-c2cc(C(F)(F)F)c(F)c(O)c2F)c2cnc(N3CCOCC3CC(F)(F)F)nc21 (centres unmarked) [Compound 18.107, 2,6-Difluoro-3-(1-methyl-6-(3-(2,2,2-trifluoroethyl)morpholino)-1H-pyrazolo[3,4-d]pyrimidin-3-y1)-5-(trifluoromethyl)phenol]	> 7.00
Cn1nc(-c2cc(C(F)(F)F)c(F)c(O)c2F)c2cnc(N3CCN(c4ccccc4)C(=O)C3)cc21 [Compound 9.91, 4-(3-(2,4-Difluoro-3-hydroxy-5-(trifluoromethyl)phenyl)-1-methyl-1H-pyrazolo[4,3-c]pyridin-6-yl)-1-phenylpiperazin-2-one]	> 7.00
CN(C(=O)c1ccc2oc(-c3cc(C(F)(F)F)c(F)c(O)c3F)nc2c1)C1CCC1 [Compound 1.15, N-Cyclobutyl-2-(2,4-difluoro-3-hydroxy-5-(trifluoromethyl)phenyl)-N-methylbenzo[d]oxazole-5-carboxamide]	6.00 to 7.00
O=C(NC12COC(C1)C2)c1ccc2oc(-c3cc(C(F)(F)F)c(F)c(O)c3F)nc2c1 [Compound 1.21, N-(2-Oxabicyclo[2.1.1]hexan-4-yl)-2-(2,4-difluoro-3-hydroxy-5-(trifluoromethyl)phenyl)benzo[d]oxa-zole-5-carboxamide]	6.00 to 7.00
Cn1nc(-c2cc(C(F)(F)F)c(F)c(O)c2F)c2cc(F)c(N3CCOCC34CC4)cc21 [Compound 9.121, 2,6-Difluoro-3-(5-fluoro-1-methyl-6-(7-oxa-4-azaspiro[2.5]octan-4-yl)-1H-indazol-3-yl)-5-(trifluoromethyl)phenol]	> 7.00
Cn1nc(-c2cc(C(F)(F)F)c(F)c(O)c2F)c2cnc(N3CC(C)(C#N)C3)cc21 [Compound 9.08, 1-(3-(2,4-Difluoro-3-hydroxy-5-(trifluoromethyl)phenyl)-1-methyl-1H-pyrazolo[4,3-c]pyridin-6-yl)-3-methylazetidine-3-carbonitrile]	> 7.00
CC(C)N1CCN(c2cc3c(cn2)c(-c2cc(C(F)(F)F)c(F)c(O)c2F)nn3C)CC1=O [Compound 9.63, 4-(3-(2,4-Difluoro-3-hydroxy-5-(trifluoromethyl)phenyl)-1-methyl-1H-pyrazolo[4,3-c]pyridin-6-yl)-1-isopropylpiperazin-2-one]	> 7.00
Cn1nc(-c2ccc(F)c(O)c2)c2ccc(-c3ccc(O)c(Cl)c3)cc21 [Compound 17, 2-Chloro-4-(3-(4-fluoro-3-hydroxyphenyl)-1-methyl-1H-indazol-6-yl)phenol]	6.00 to 7.00
O=C(NC1CC1)c1ccc2oc(-c3cc(O)c(F)c(F)c3)nc2c1 [Compound 1.01, N-Cyclopropyl-2-(3,4-difluoro-5-hydroxyphenyl)benzo[d]oxazole-5-carboxamide]	4.52 to 6.00
Cn1nc(-c2cc(C(F)(F)F)c(F)c(O)c2F)c2cnc(N3CC4(CCOCC4)C3)nc21 [Compound 9.04, 2,6-Difluoro-3-(1-methyl-6-(7-oxa-2-azaspiro[3.5]nonan-2-yl)-1H-pyrazolo[3,4-d]pyrimidin-3-yl)-5-(trifluoromethyl)phenol]	> 7.00
Cn1nc(-c2cc(C(F)(F)F)c(F)c(O)c2F)c2cnc(N3CCOC(c4ncon4)C3)nc21 (centres unmarked) [Compound 18.81, 3-(6-(2-(1,2,4-Oxadiazol-3-yl)morpholino)-1-methyl-1H-pyrazolo[3,4-d]pyrimidin-3-y1)-2,6-difluoro-5-(trifluoromethyl)phenol]	> 7.00
Cn1nc(-c2cc(C(F)(F)F)c(F)c(O)c2F)c2cnc(N3CCOCCC34CC4)cc21 [Compound 9.70, 2,6-Difluoro-3-(1-methyl-6-(7-oxa-4-azaspiro[2.6]nonan-4-yl)-1H-pyrazolo[4,3-c]pyridin-3-yl)-5-(trifluoromethyl)phenol]	> 7.00
Cn1nc(-c2cc(C(F)(F)F)c(F)c(O)c2F)c2cnc(N3CCC4(CCO4)CC3)nc21 [Compound 18.92, 2,6-Difluoro-3-(1-methyl-6-(1-oxa-7-azaspiro[3.5]nonan-7-y1)-1H-pyrazolo[3,4-d]pyrimidin-3-y1)-5-(trifluoromethyl)phenol]	> 7.00

Further lines, results first:

pIC50	Structure (SMILES)
> 7.00	Cn1nc(-c2cc(C(F)(F)F)c(F)c(O)c2F)c2cnc(N3CCOCC3C3CCOCC3)cc21 (centres unmarked) [Compound 9.76, 2,6-Difluoro-3-(1-methyl-6-(3-(tetrahydro-2H-pyran-4-yl)morpholino)-1H-pyrazolo[4,3-c]pyridin-3-yl)-5-(trifluoromethyl)phenol]
> 7.00	CS(=O)(=O)N1CCN(c2cnc3c(-c4cc(O)c(F)c(C(F)(F)F)c4)nn(C4CCCCO4)c3n2)CC1 (centres unmarked) [Compound 10.05, 2-Fluoro-5-(6-(4-(methylsulfonyl)piperazin-1-yl)-1-(tetrahydro-2H-pyran-2-yl)-1H-pyrazolo[3,4-b]pyrazin-3-yl)-3-(trifluoromethyl)phenol]
> 7.00	Cn1nc(-c2cc(C(F)(F)F)c(F)c(O)c2F)c2cnc(N3CCN(S(C)(=O)=O)CC3)nc21 [Compound 12.01, 2,6-Difluoro-3-(1-methyl-6-(4-(methylsulfonyl)piperazin-1-yl)-1H-pyrazolo[3,4-d]pyrimidin-3-yl)-5-(trifluoromethyl)phenol]
> 7.00	Cn1nc(-c2cc(C(F)(F)F)c(F)c(O)c2F)c2cnc(N3CCNC(=O)C34CC4)cc21 [Compound 9.43, 4-(3-(2,4-Difluoro-3-hydroxy-5-(trifluoromethyl)phenyl)-1-methyl-1H-pyrazolo[4,3-c]pyridin-6-yl)-4,7-diazaspiro[2.5]octan-8-one]
> 7.00	CN(c1ccc2c(-c3cc(C(F)(F)F)c(F)c(O)c3F)nn(C)c2n1)C1CCC1 [Compound 9.18, 3-(6-(Cyclobutyl(methyl)amino)-1-methyl-1H-pyrazolo[3,4-b]pyridin-3-yl)-2,6-difluoro-5-(trifluoromethyl)phenol]
> 7.00	COCCn1nc(-c2cc(C(F)(F)F)c(F)c(O)c2F)c2cnc(N3CCOCC34CC4)cc21 [Compound 9.73, 2,6-Difluoro-3-(1-(2-methoxyethyl)-6-(7-oxa-4-azaspiro[2.5]octan-4-yl)-1H-pyrazolo[4,3-c]pyridin-3-yl)-5-(trifluoromethyl)phenol]
> 7.00	Cn1nc(-c2cc(C(F)(F)F)c(F)c(O)c2F)c2cnc(N(Cc3ccccc3)C3CCOCC3)nc21 [Compound 19.02, 3-(6-(Benzyl(tetrahydro-2H-pyran-4-yl)amino)-1-methyl-1H-pyrazolo[3,4-d]pyrimidin-3-y1)-2,6-difluoro-5-(trifluoromethyl)phenol]

Same assay, conditions: at 10 uM compound; read-out: HSD17β13 % inhibition at 10 uM

inhibition at 10 µM [%]	Structure (SMILES)
25	Cn1nc(-c2cc(C(F)(F)F)c(F)c(O)c2F)c2ccc(NC3COC3)nc21 [Compound 9.139, 2,6-Difluoro-3-(1-methyl-6-(oxetan-3-ylamino)-1H-pyrazolo[3,4-b]pyridin-3-yl)-5-(trifluoromethyl)phenol]
